Columns and labels:
[1] = RNA encapsulation efficiency of LNPs by Quant-IT Ribogreen; assay type: physicochemical; conditions: LNPs with luciferase mRNA; ionizable lipid:non-cationic lipid:sterol:PEG-modified lipid 50:10:38.5:1.5; percentage of RNA entrapped in the LNP
In short: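 LNPs formed by mixing aqueous mRNA into ethanol lipid solution, diluted 1:1 in Tris, dialysed overnight against Tris with 15% sucrose. Encapsulated mRNA measured by Ribogreen fluorescence per kit protocol; LNPs adjusted to 100 µg/ml final mRNA.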

[2] = Size distribution, polydispersity and Z-potential of LNPs by dynamic light scattering (Malvern Zetasizer); assay type: physicochemical; conditions: LNPs, standard formulation 50:10:38.5:1.5; DLS
Procedure: The LNP solution was then adjusted to a final concentration of mRNA of 100 µg/ml. Size distribution, polydispersity and Z-potential were measured by dynamic light scattering (DLS) using Malvern Zetasizer Advance Lab Blue Label. RNA encapsulation was assessed by Quant-IT® Ribogreen following the manufacturer's instructions.

mice = test: LNP stability over time: in vivo transfection (total flux) in mice, fresh versus stored at 4 °C; conditions: LNP 50:10:38.5:1.5
Procedure: Two LNPs comprising: ionizable lipid (Formula I):non-cationic lipid:sterol: PEG-modified lipid
in the ratios 50:10:38.5:1.5 were tested in order to determine their stability. Formulation A comprising VC-LC-0163 as the ionizable lipid was administered to mice and transfection efficiency measured with a fresh preparation in a first experiment, and with a preparation that had been stored for 83 days at T = 4 °C.
Formulation B comprising VC-LC-0263 as the ionizable lipid was administered to mice and transfection efficiency measured with a fresh preparation in a first experiment, and with a preparation that had been stored for 61 days at T = 4 °C.

## CCCCCCCCCCCCCCCCOC(=O)CCSCCC(NC(=O)C(CCCCCC)CCCCCCCC)C(=O)NCCCn1ccnc1 (stereo not drawn) [VC-LC-0263]
[1]
  Encaps. efficiency (%): 60.70%
[2]
  P.D.I.: 0.13
  Particle size/ Ø (nm): 188.6 nm
  Z Potential (± D.E.) [mV]: -17.30 mV
mice; t = 0, fresh preparation
  Total flux (p·s^-1): 1.19E+08 p·s^-1
mice; t = 61 days, stored at 4 °C
  Total flux (p·s^-1): 5.07E+07 p·s^-1

Source: patent EP4371976B1, “IONIZABLE LIPIDS AND LIPID NANOPARTICLES CONTAINING THEREOF” (Certest Biotec, S.L., priority 2022, dated 2024)
